According to patent US20090270416A1, “N-OXIDES OF DIARYLUREA DERIVATIVES AND THEIR USE AS Chk1 INHIBITORS FOR THE TREATMENT OF CANCER” (SENTINEL ONCOLOGY LIMITED, priority 2006, published 2009):
Each block holds one compound with its values, some of them ahead of it.

Experiments:
CHK1 (h) = target: T1, CHK1 (h) (Homo sapiens, UniProt O14757); test: Chk-1 kinase inhibiting activity (Upstate radiometric assay); assay type: biochemical
T1 construct: purchased Upstate Ltd (assay run at Upstate)
T1 sequence (O14757 1-476): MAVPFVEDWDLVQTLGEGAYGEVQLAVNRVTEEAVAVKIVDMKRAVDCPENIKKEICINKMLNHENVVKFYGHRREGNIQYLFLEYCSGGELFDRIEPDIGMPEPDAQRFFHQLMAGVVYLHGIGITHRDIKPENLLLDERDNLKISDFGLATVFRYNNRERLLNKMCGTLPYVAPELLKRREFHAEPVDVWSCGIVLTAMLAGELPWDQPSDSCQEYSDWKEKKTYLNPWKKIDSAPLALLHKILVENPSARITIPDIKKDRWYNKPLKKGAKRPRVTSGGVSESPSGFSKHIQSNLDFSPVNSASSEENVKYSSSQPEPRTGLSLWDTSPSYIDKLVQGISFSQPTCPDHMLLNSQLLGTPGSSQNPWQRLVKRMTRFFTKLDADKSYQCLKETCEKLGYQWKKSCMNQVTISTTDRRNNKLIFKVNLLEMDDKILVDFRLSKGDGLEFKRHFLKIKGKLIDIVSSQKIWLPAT
Method: The N-oxide compounds of the invention and their tertiary amine precursors were tested for activity against the Chk-1 kinase.
The Chk-1 assay was conducted at Upstate Ltd, Gemini Crescent, Dundee Technology Park, Dundee, DD2 1 SW, UK in accordance with the protocol set out below. In a final reaction volume of 25 μl, CHK1 (h) (5-10 mU) is incubated with 8 mM MOPS pH 7.0, 0.2 mM EDTA, 200 μM […], 10 mM MgAcetate and γ-33P-ATP] (specific activity approx. 500 cpm/pmol, concentration as required). The reaction is initiated by the addition of the MgATP mix. After incubation for 40 minutes at room temperature, the reaction is stopped by the addition of 5 μl of a 3% phosphoric acid solution. 10 μl of the reaction mixture is then spotted onto a P30 filtermat and washed three times for 5 minutes in 75 mM phosphoric acid and once in methanol prior to drying and scintillation counting.

hERG potassium channel = target: T2, hERG potassium channel (Homo sapiens, UniProt Q12809); test: Functional hERG assay (patch clamp, HEK-293 cells); assay type: cell-based; conditions: 5-point dose response, triplicate
T2 construct: expressed in transfected cells; host or cells: HEK-293
T2 sequence (Q12809 whole entry): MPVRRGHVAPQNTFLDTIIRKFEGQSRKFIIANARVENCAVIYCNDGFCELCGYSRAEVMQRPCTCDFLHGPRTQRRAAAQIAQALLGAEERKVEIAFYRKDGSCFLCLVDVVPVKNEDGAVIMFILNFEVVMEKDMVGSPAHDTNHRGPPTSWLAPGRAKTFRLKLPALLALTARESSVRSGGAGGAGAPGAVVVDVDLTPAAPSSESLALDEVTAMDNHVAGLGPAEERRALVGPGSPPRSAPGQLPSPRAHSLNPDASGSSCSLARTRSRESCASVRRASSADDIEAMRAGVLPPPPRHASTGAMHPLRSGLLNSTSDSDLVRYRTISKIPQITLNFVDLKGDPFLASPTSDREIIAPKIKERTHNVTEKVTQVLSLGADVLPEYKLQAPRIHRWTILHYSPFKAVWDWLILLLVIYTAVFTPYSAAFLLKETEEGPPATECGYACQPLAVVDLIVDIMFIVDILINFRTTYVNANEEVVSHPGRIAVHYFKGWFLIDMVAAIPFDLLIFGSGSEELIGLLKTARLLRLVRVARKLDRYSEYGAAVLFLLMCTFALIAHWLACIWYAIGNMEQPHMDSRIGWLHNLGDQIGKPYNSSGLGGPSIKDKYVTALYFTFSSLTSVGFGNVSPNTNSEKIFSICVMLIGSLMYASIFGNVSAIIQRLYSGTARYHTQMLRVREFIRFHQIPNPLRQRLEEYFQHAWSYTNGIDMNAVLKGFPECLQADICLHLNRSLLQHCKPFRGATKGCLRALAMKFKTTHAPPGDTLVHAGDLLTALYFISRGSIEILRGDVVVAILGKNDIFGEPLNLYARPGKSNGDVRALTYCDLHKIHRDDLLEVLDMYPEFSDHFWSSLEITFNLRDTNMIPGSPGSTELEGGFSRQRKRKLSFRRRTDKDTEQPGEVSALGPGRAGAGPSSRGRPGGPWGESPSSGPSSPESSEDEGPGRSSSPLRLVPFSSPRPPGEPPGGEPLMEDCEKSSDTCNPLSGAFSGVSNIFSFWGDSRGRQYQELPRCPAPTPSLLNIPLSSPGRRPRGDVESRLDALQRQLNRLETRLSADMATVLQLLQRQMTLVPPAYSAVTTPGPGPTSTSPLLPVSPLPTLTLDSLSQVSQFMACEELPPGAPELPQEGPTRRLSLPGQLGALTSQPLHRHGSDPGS
Method: The N-oxide compounds of the invention and their tertiary amine precursors were each tested for hERG inhibiting activity using the method of Zhou Z, Gong Q, Ye B, Fan Z, Makielski J C, Robertson G A, January C T. Biophys J. 1998 January; 74(1):230-41.
Test compounds were tested in triplicate in a 5-point dose response curve on HEK-293 cells stably expressing the hERG potassium channel. Potassium current was measured using the patch clamp technique on a Molecular Devices Patch Express 7000. hERG channels were activated by 2 second pulses to +20 mV from a holding potential of −80 mV, and peak tail currents were recorded upon repolarization to −50 mV. This voltage-clamp pulse protocol was performed continuously during the experiment (vehicle control, test compound, washout, and positive control additions). An interpulse interval of 15 seconds allowed recovery from any residual inactivation. Test compounds were incubated with cells between 3-8 minutes until the current reached a steady state level, defined by a Standard Deviation of 0.01. After the final test compound concentration was tested, test compound was washed out with continuous perfusion of extracellular solution for 3 minutes, followed by application of positive control (10 μM Cisparide).
Test compounds were diluted in 100% DMSO at 1000× the highest concentration to be tested, vortexed, and sonicated. Visual inspection determined that compounds were completely solubilized. Test compounds were then diluted into glass vials in 100% DMSO for all test concentrations at 1000× the final concentration to be tested and vortexed. Test compounds were then diluted 1:1000 into extracellular solution and vortexed to achieve final concentration for testing. Final DMSO concentration was 0.1% for all concentrations of test compounds, Vehicle (negative) control, and Cisapride (positive) control in extracellular solution. The compositions of the solutions used were as follows:
Intracellular Soln (mM): KCl 130, EDTA 5, MgCl2 5, HEPES10, Na-ATP 5, pH=7.2 Extracellular Soln (mM): NaCl 137, KCl 4, CaCl2 1.8, MgCl2 1, Dextrose 11, HEPES 10, pH=7.4

[1] = target: T3, human potassium channel hERG (Homo sapiens, UniProt Q12809); test: hERG binding activity ([3H] astemizole displacement, HEK-293 membranes); conditions: 1.5 nM [3H] astemizole; for IC50: 60 minutes at 25° C.; for HERG Binding % @ 100 uM (extent of binding): @ 100 uM test compound
T3 construct: expressed in transfected cells; host or cells: HEK-293
T3 sequence (Q12809 whole entry): as above
Method: The abilities of the N-oxide compounds of the invention and their tertiary amine precursors were tested using the assay described below.
Human recombinant HEK-293 cells stably transfected with a plasmid encoding the human potassium channel hERG were used to prepare membranes in modified HEPES pH 7.4 buffer using standard techniques. A 10 μg aliquot of membrane was incubated with 1.5 nM [^3H] astemizole in the presence of varying concentrations of test compound for 60 minutes at 25° C. The membranes were then filtered and washed three times and the filters were counted to determine the [^3H] astemizole specifically bound. From the counts, the extent of binding of the test compound and, in some cases, the IC50 values of the test compounds, were determined.

MAPK2(h) = target: T4, MAPK2(h) (Homo sapiens, UniProt P28482); test: Kinase selectivity screen (Upstate); assay type: biochemical; conditions: 10 μM compound; ATP 155 μM; N = 2
T4 construct: purchased Upstate
Method: (§1) The compound of Example 1F was tested (Upstate) against a number of other kinases and the results are set out in Table 5 below.

JNK1α1(h) = target: T5, JNK1α1(h) (Homo sapiens, UniProt P45983); test: Kinase selectivity screen (Upstate); assay type: biochemical; conditions: 10 μM compound; ATP 45 μM; N = 2
T5 construct: purchased Upstate
Method: as §1

ZAP-70(h) = target: T6, ZAP-70(h) (Homo sapiens, UniProt P43403); test: Kinase selectivity screen (Upstate); assay type: biochemical; conditions: 10 μM compound; ATP 15 μM; N = 2
T6 construct: purchased Upstate
T6 sequence (P43403 whole entry): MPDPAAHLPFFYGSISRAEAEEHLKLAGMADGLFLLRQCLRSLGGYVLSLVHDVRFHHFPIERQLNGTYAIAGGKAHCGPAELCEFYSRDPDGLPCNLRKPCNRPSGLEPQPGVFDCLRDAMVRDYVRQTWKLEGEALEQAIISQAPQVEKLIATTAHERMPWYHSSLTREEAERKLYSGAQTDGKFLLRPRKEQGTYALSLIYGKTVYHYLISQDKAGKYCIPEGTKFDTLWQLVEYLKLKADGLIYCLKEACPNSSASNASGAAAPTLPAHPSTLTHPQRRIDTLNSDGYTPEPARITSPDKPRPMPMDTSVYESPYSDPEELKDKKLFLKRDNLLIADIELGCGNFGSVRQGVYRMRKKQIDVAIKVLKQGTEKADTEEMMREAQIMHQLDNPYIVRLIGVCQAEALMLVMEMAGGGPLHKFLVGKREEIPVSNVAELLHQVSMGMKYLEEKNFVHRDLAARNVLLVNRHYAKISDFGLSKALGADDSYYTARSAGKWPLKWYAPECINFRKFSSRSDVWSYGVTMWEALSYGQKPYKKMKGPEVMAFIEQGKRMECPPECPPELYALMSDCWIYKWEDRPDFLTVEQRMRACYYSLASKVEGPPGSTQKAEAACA
Method: as §1

MEK1(h) = target: T7, MEK1(h) (Homo sapiens, UniProt Q02750); test: Kinase selectivity screen (Upstate); assay type: biochemical; conditions: 10 μM compound; ATP 10 μM; N = 2
T7 construct: purchased Upstate
Method: as §1

Pim-1(h) = target: T8, Pim-1(h) (Homo sapiens, UniProt P11309); test: Kinase selectivity screen (Upstate); assay type: biochemical; conditions: 10 μM compound; ATP 90 μM; N = 2
T8 construct: purchased Upstate
Method: as §1

Fms(h) = target: T9, Fms(h) (Homo sapiens, UniProt P07333); test: Kinase selectivity screen (Upstate); assay type: biochemical; conditions: 10 μM compound; ATP 200 μM; N = 2
T9 construct: purchased Upstate
T9 sequence (P07333 20-972): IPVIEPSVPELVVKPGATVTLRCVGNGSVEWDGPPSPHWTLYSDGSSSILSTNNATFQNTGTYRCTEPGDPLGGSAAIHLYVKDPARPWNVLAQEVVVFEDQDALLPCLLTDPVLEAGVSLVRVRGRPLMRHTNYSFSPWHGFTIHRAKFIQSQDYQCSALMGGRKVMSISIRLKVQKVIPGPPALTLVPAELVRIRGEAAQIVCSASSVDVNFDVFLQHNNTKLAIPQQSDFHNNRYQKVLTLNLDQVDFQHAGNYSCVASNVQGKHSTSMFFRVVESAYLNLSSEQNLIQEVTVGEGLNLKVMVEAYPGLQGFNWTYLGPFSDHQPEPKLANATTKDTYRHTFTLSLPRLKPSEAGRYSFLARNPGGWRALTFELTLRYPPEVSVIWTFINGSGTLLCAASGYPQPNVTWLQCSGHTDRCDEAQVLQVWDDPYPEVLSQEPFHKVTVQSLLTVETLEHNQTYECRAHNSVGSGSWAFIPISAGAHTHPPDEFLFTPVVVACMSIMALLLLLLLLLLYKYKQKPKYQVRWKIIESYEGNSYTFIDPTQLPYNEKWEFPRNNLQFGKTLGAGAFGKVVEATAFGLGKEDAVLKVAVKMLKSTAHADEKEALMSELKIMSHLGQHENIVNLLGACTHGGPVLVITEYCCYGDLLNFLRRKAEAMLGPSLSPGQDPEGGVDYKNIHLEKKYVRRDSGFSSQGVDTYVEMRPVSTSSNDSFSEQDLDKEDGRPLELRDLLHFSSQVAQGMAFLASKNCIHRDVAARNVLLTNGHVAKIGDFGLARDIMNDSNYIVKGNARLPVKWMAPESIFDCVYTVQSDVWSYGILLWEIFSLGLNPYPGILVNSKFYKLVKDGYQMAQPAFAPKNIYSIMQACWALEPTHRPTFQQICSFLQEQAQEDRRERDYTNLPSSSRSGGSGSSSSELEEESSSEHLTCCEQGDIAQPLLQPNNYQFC
Method: as §1

EGFR(h) = target: T10, EGFR(h) (Homo sapiens, UniProt P00533); test: Kinase selectivity screen (Upstate); assay type: biochemical; conditions: 10 μM compound; ATP 10 μM; N = 2
T10 construct: purchased Upstate
Method: as §1

NEK2(h) = target: T11, NEK2(h) (Homo sapiens, UniProt P51955); test: Kinase selectivity screen (Upstate); assay type: biochemical; conditions: 10 μM compound; ATP 120 μM; N = 2
T11 construct: purchased Upstate
Method: as §1

PKA(h) = target: T12, PKA(h) (Homo sapiens, UniProt P17612); test: Kinase selectivity screen (Upstate); assay type: biochemical; conditions: 10 μM compound; ATP 10 μM; N = 2
T12 construct: purchased Upstate
Method: as §1

cKit(h) = target: T13, cKit(h) (Homo sapiens, UniProt P10721); test: Kinase selectivity screen (Upstate); assay type: biochemical; conditions: 10 μM compound; ATP 200 μM; N = 2
T13 construct: purchased Upstate
Method: as §1

CHK2(h) = target: T14, CHK2(h) (Homo sapiens, UniProt O96017); test: Kinase selectivity screen (Upstate); assay type: biochemical; conditions: 10 μM compound; ATP 70 μM; N = 2
T14 construct: purchased Upstate
Method: as §1

KDR(h) = target: T15, KDR(h) (Homo sapiens, UniProt P35968); test: Kinase selectivity screen (Upstate); assay type: biochemical; conditions: 10 μM compound; ATP 90 μM; N = 2
T15 construct: purchased Upstate
Method: as §1

Tie2(h) = target: T16, Tie2(h) (Homo sapiens, UniProt Q02763); test: Kinase selectivity screen (Upstate); assay type: biochemical; conditions: 10 μM compound; ATP 200 μM; N = 2
T16 construct: purchased Upstate
Method: as §1

FGFR1(h) = target: T17, FGFR1(h) (Homo sapiens, UniProt P11362); test: Kinase selectivity screen (Upstate); assay type: biochemical; conditions: 10 μM compound; ATP 200 μM; N = 2
T17 construct: purchased Upstate
Method: as §1

CDK2/cyclinE(h) = target: T18, CDK2/cyclinE(h) (Homo sapiens, UniProt P24941); test: Kinase selectivity screen (Upstate); assay type: biochemical; conditions: 10 μM compound; ATP 120 μM; N = 2
T18 construct: purchased Upstate
Method: as §1

PDGFRβ(h) = target: T19, PDGFRβ(h) (Homo sapiens, UniProt P09619); test: Kinase selectivity screen (Upstate); assay type: biochemical; conditions: 10 μM compound; ATP 200 μM; N = 2
T19 construct: purchased Upstate
Method: as §1

Aurora-A(h) = target: T20, Aurora-A(h) (Homo sapiens, UniProt O14965); test: Kinase selectivity screen (Upstate); assay type: biochemical; conditions: 10 μM compound; ATP 15 μM; N = 2
T20 construct: purchased Upstate
T20 sequence (O14965 whole entry): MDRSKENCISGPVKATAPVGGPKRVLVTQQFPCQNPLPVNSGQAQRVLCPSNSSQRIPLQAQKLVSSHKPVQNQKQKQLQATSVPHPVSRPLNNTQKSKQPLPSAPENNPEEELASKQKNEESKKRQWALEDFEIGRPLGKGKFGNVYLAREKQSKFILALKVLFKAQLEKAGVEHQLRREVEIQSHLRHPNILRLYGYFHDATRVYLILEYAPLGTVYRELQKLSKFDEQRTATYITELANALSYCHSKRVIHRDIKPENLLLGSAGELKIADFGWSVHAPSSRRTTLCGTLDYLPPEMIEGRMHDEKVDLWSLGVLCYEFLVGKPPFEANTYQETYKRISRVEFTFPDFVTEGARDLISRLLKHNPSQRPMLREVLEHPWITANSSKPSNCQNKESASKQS
Method: as §1

PKCθ(h) = target: T21, PKCθ(h) (Homo sapiens, UniProt Q04759); test: Kinase selectivity screen (Upstate); assay type: biochemical; conditions: 10 μM compound; ATP 15 μM; N = 2
T21 construct: purchased Upstate
T21 sequence (Q04759 whole entry): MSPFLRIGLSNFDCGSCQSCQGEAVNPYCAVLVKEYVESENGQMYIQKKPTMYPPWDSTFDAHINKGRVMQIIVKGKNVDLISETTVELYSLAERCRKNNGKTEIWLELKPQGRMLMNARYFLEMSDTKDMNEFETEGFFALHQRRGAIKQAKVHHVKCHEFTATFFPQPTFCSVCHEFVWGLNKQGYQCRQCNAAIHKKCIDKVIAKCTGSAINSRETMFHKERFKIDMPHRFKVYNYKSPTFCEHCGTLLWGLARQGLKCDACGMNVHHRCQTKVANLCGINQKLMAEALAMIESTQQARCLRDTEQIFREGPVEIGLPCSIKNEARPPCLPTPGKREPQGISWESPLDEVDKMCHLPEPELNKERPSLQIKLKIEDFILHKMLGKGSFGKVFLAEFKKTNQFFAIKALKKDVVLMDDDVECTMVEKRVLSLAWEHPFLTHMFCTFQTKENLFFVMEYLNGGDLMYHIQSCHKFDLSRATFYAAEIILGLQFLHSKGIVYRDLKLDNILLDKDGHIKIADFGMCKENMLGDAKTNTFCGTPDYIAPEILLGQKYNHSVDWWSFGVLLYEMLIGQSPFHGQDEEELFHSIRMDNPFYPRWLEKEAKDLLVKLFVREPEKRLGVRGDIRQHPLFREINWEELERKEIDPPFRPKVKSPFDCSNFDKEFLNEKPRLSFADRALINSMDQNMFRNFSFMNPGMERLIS
Method: as §1

IGF-1R(h) = target: T22, IGF-1R(h) (Homo sapiens, UniProt P08069); test: Kinase selectivity screen (Upstate); assay type: biochemical; conditions: 10 μM compound; ATP 200 μM; N = 2
T22 construct: purchased Upstate
Method: as §1

cSRC(h) = target: T23, cSRC(h) (Homo sapiens, UniProt P12931); test: Kinase selectivity screen (Upstate); assay type: biochemical; conditions: 10 μM compound; ATP 200 μM; N = 2
T23 construct: purchased Upstate
Method: as §1

Flt3(h) = target: T24, Flt3(h) (Homo sapiens, UniProt P36888); test: Kinase selectivity screen (Upstate); assay type: biochemical; conditions: 10 μM compound; ATP 200 μM; N = 2
T24 construct: purchased Upstate
Method: as §1

Yes(h) = target: T25, Yes(h) (Homo sapiens, UniProt P07947); test: Kinase selectivity screen (Upstate); assay type: biochemical; conditions: 10 μM compound; ATP 45 μM; N = 2
T25 construct: purchased Upstate
Method: as §1

other kinases = test: Kinase selectivity screen (Upstate), panel as a whole; assay type: biochemical, human; conditions: 10 μM compound; summary of Table 5
Method: as §1

- IC50 (CHK1 (h)): 51 nM
SMILES: Cc1cnc(NC(=O)Nc2cc(Cl)ccc2OCCCN(C)C)cn1 [Example 2B, 1-[5-Chloro-2-(3-dimethylamino-propoxy)-phenyl]-3-(5-methyl-pyrazin-2-yl)-urea]
- IC50 (hERG potassium channel): 610 nM
- IC50 [1]: 2980 nM

- IC50 (CHK1 (h)): 71 nM
- inhibition at 10 µM (MAPK2(h)): 0%
- inhibition at 10 µM (JNK1α1(h)): 0%
- inhibition at 10 µM (ZAP-70(h)): 5%
- inhibition at 10 µM (MEK1(h)): 0%
- inhibition at 10 µM (Pim-1(h)): 0%
- inhibition at 10 µM (Fms(h)): 12%
- inhibition at 10 µM (EGFR(h)): 0%
- inhibition at 10 µM (NEK2(h)): 0%
- inhibition at 10 µM (PKA(h)): 0%
- inhibition at 10 µM (cKit(h)): 0%
- inhibition at 10 µM (CHK2(h)): 71%
- inhibition at 10 µM (KDR(h)): 38%
- inhibition at 10 µM (Tie2(h)): 11%
- inhibition at 10 µM (FGFR1(h)): 92%
- inhibition at 10 µM (CDK2/cyclinE(h)): 0%
- inhibition at 10 µM (PDGFRβ(h)): 1%
- inhibition at 10 µM (Aurora-A(h)): 14%
- inhibition at 10 µM (PKCθ(h)): 37%
- inhibition at 10 µM (IGF-1R(h)): 36%
- inhibition at 10 µM (cSRC(h)): 11%
- inhibition at 10 µM (Flt3(h)): 73%
- inhibition at 10 µM (Yes(h)): 0%
- activity against most other kinases apart from CHK2, FGFR1 and Flt3 (other kinases): largely inactive or only poorly active
SMILES: C[N+](C)([O-])CCCOc1ccc(Cl)cc1NC(=O)Nc1cnccn1 [Example 1F]
- IC50 (hERG potassium channel): 26700 nM
- HERG Binding % @ 100 uM (extent of binding) [1]: 35% @ 100 uM

- IC50 (CHK1 (h)): 279 nM
SMILES: CN(C)CCCOc1ccc(Cl)cc1NC(=O)Nc1ccc(C#N)cn1 [Example 4B, 1-[5-Chloro-2-(3-dimethylamino-propoxy)-phenyl]-3-(5-cyano-pyridin-2-yl)-urea]
- IC50 (hERG potassium channel): 130 nM
- IC50 [1]: 445 nM

- IC50 (CHK1 (h)): 128 nM
SMILES: Cc1cnc(NC(=O)Nc2cc(Cl)ccc2OCCC[N+](C)(C)[O-])cn1 [Example 2C, 1-[5-Chloro-2-(3-dimethyloxyamino-propoxy)-phenyl]-3-(5-methyl-pyrazin-2-yl)-urea]
- IC50 (hERG potassium channel): > 30000 nM
- HERG Binding % @ 100 uM (extent of binding) [1]: 3% @ 100 uM
